The source of these data is publication PMC9229798, “Antioxidant Activity and Cytotoxicity of Aromatic Oligosulfides” (Molecules, 2022).

What is called IC50 is the midpoint of a concentration-inhibition curve. Read a low IC50 as greater potency.

Where “and” joins values, the source holds several entries; their conditions need not be identical. Identical values can stand only once.

Assay [1] can be described thus: FRAP assay (ferric reducing antioxidant power). To be noted: Trolox equivalents. How it is done: The assessment of antioxidant activity was also carried out by the FRAP (Ferric Reduction Aantioxidant Power) method based on electron transfer similar to the CUPRAC method, while in the DPPH test, the reaction proceeded according to the HAT mechanism. Antioxidant activity of compounds 1–6 was also calculated in Trolox equivalents (TEACFRAP). […] The lowest activity was obtained for trisulfide 1 and disulfide 5, which are characterized by the absence of functional groups in the benzene ring. The TEACFRAP values for disulfide 2 with a methoxy group and compounds 4 and 6 with a phenolic fragment differed insignificantly and amounted to 0.58 and 0.69 Trolox equivalents.
The sample solution (0.1 mL) was mixed with 0.1 mL phosphate buffer (0.2 M, pH 6.6) and 0.1 mL potassium ferricyanide (1%). For each test compound different concentrations in EtOH were used (5, 10, 25, 50, 100, 200 and 250 μM). The resulting mixture was incubated at 50 °C for 20 min. After the incubation period, 0.1 mL trichloroacetic acid (10%), 0.5 mL deionized water, and 0.1 mL ferric chloride (0.1%) were added to the mixture. The sample absorbance was read at 700 nm with a 96-cell microplate spectrophotometer. The reduction of Fe (III) to Fe (II) could be expressed as % inhibition or equivalent of a standard compound (e.g., Trolox).

The next assay concerns MCF-7. In words: MTT assay. It counts as cell-based, human. To be noted: Homo sapiens, MCF7, 72 h. How it is done: (§1) The antiproliferative activity of aromatic oligosulfides 1–6 was determined against human cell lines, including colon carcinoma HCT-116, breast adenocarcinoma MCF-7, lung adenocarcinoma A-549, colorectal carcinoma SW-480, and non-tumourigenic WI-38, using the MTT assay (Table 4). […] However, some selectivity for cancer cells was evident and the IC50 values for non-tumourigenic cells were slightly higher for compounds 1 and 2.
(§2) Cell survival was determined by the MTT [3-(4,5-[…])-2,5-diphenyl tetrazolium bromide] assay by Niks method with small modifications. HCT-116 (colon carcinoma), MCF-7 (breast adenocarcinoma), A-549 (lung adenocarcinoma) and SW-480 (colorectal carcinoma) human cancer cell lines and WI-38 (cell line composed of fibroblasts) were cultured in DMEM (PanEco, Moscow, Russia) with Glutamin (PanEco, Moscow, Russia) and antibiotics (PanEco, Moscow, Russia) in CO2 (5%) at 37 °C. The compounds were dissolved (20 mM) in DMSO and then added to the cell culture medium at the required concentration with a maximum DMSO content of 0.5 v/v%. At these concentrations, DMSO had no effect on cell viability, as was shown in the control experiments. Cells were cultured in 96-well plates (7000 cells/well) and treated with various concentrations (from […]) of the test compounds as well as doxorubicin at 37 °C for 72 h. Cell viability was determined using the MTT assay, which quantified dehydrogenase activity. Then, the cells were incubated at 37 °C for 50 min with a solution of MTT ([…], 5 mg × mL^−1) (Sigma-Aldrich, St. Louis, MO, USA). The supernatant was discarded, and cells were dissolved in DMSO ([…]). The optical density of the solution was measured at 570 nm with use of a multiwall-plate reader (Anthos Zenyth 2000rt, Biochrom, Cambridge, UK), and the percentage of surviving cells was calculated from the absorbance of untreated cells. Each experiment was repeated at least three times, and each concentration was tested in at least three replicates. Data were presented as a graph of the percentage of surviving cells versus the concentration of the test substances. The meanings of 50% inhibition concentration (IC50) with standard deviation were calculated using GraphPad Prism Version 5.03 for Windows (GraphPad Software, San Diego, CA, USA).

Another assay has as its system HCT-116. Briefly: MTT assay. Format: cell-based, human. Conditions: Homo sapiens, HCT-116, 72 h. How it is done: as §1, §2
(Tetrazolium dyes change colour on reduction, which living cells bring about.)

The subject of a further assay is SOD. Briefly: SOD-protective activity, cytosolic fraction of liver homogenate. To be noted: adrenaline oxidation with biopreparation, compound initial 25 µM. It counts as biochemical, Russian sturgeon. The text has this: Superoxide dismutase (SOD) is present in almost all aerobic cells and extracellular fluids and is able to inhibit the accumulation of adrenochrome by intercepting O2^–•. The process of splitting O2^–• by SOD into O2 and H2O2 occurs in the body, which is facilitated by the presence of metal ions Cu, Zn, Mn and Fe, playing an important role in lipid peroxidation. […] This system is also suitable for determining the activity of the endogenous enzyme–antioxidant SOD responsible for the utilization of O2^–• [43, 44]. The reaction sequence of adrenaline autoxidation with the adrenochrome formation was described earlier.
SOD-protective activity of the biopreparation was the ability to utilize the superoxide anion radical O2^–•, as determined by the method of Sirota. A cytosolic fraction of the Russian sturgeon liver homogenate was used as the source of SOD. First, the sturgeon liver was washed with cold 0.2 M Tris (tris (hydroxymethyl) aminomethane) buffer (pH 7.8) to remove any traces of blood. All of the procedures were performed at a temperature of 0–4 °C. Next, a homogenate was obtained using a Potter homogenizer (Thomas Scientifc, Swedesboro, NJ, USA) in 0.2 M Tris buffer at a ratio of 1:10. The homogenate was then centrifuged for 10 min at 1000× g to remove partially destroyed cells and nuclei. The resulting supernatant contained the enzymes of the cytosolic fraction of the liver homogenate, including the SOD. Here, 10 µL of the biopreparation was added to a cuvette with 200 µL of bicarbonate buffer (pH 10.65), 10 µL of the tested compound (initial concentrations of these compounds 25 µM) and 10 µL of 0.1% adrenaline solution and was thoroughly and quickly mixed. The rate of adrenaline oxidation without and in the presence of the biopreparation was evaluated by the change in optical density, measured at 347 nm for 3 min. The decrease in the rate of the process in the presence of the biopreparation was used to characterize the SOD-protective activity.

Assay [2] in a line: Antiradical activity, quinoid oxidation (autoxidation) of adrenaline. Conditions: adrenaline autoxidation in alkaline buffer, compound initial 25 µM.

`c1ccc(SSc2ccccc2)cc1` [Compound 5, diphenyl disulfide]: in assay [1], the “TEAC FRAP” value is given as 0.06 ± 0.05. The values for the IC50 with MCF-7 and in the assay on HCT-116 were 34.8 ± 12.2 µM and 22.1 ± 1.7 µM, respectively.
As for `CC(C)(C)c1cc(SSc2cc(C(C)(C)C)c(O)c(C(C)(C)C)c2)cc(C(C)(C)C)c1O` [Compound 6, bis(3,5-di-tert-butyl-4-hydroxyphenyl) disulfide], in assay [1], the “TEAC FRAP” value was 0.69 and 0.69 ± 0.02. In addition, the IC50 in the assay with MCF-7 and in the assay on HCT-116 was above 50 µM throughout.
Turning to `Oc1ccc(SSc2ccc(O)cc2)cc1` [Compound 4, 4,4′-dihydroxydiphenyl disulfide], the “SOD Activity of Liver Sturgeon, % Inhibition” value (from here on “SOD Activity … % Inhibition”) with SOD is given as 75 ± 5.6%. In addition, in assay [1], the “TEAC FRAP” value was 0.69 and 0.69 ± 0.07. Besides, the results for the IC50 in the assay with MCF-7 and in the assay on HCT-116 were 45.3 ± 3.1 µM and 22 ± 1.5 µM, respectively. Further, the “Antiradical Activity, % Inhibition” value in assay [2] is given as 36 ± 2.3%.
Take `COc1ccc(SSc2ccc(OC)c(OC)c2)cc1OC` [Compound 3, bis(3,4-dimethoxyphenyl) disulfide]: the figures for the IC50 with MCF-7 and in the assay with HCT-116 were 37.7 ± 2.7 µM and 18.9 ± 2.1 µM, respectively.
Turning to `c1ccc(SSSc2ccccc2)cc1` [Compound 1, diphenyl trisulfide], the “SOD Activity … % Inhibition” value in the assay with SOD is given as 41 ± 2.7%. The “TEAC FRAP” value in assay [1] was 0.06 ± 0.01. The figures for the IC50 in the assay on MCF-7 and in the assay with HCT-116 were 37.6 ± 3.7 µM and 18.8 ± 1.4 µM, respectively. The “Antiradical Activity, % Inhibition” value in assay [2] was 30 ± 1.9%.
Take `COc1ccccc1SSc1ccccc1OC` [Compound 2, bis(2-methoxyphenyl) disulfide]: the “SOD Activity … % Inhibition” value in the assay on SOD came to 60 ± 3.3%. In assay [1], the “TEAC FRAP” value is 0.58 and 0.58 ± 0.05. The IC50 in the assay on MCF-7 is 30.5 ± 5.2 µM; in the assay with HCT-116 it was 24.4 ± 2.3 µM. Moreover, the “Antiradical Activity, % Inhibition” value in assay [2] was 50 ± 3.1%.
